The text below walks through data of ChEMBL document CHEMBL2176914, “Selective histone deacetylase 6 inhibitors bearing substituted urea linkers inhibit melanoma cell growth” (J Med Chem, 2012).

Activity calls are given as the source filed them. The rule behind the calls is not given here. Some results are limits rather than exact numbers.

Test [1] deals with B16. As to the kind of experiment: Growth inhibition of mouse B16 cells incubated for 48 hrs by MTT assay. The test is classed as functional. Conditions: for GI50: B16, 48 h. On the technique in general: Tetrazolium dyes change colour on reduction, which living cells bring about.
The next test is filed under the species Homo sapiens. As to the kind of experiment: Selectivity index, ratio of IC50 for human recombinant HDAC1 to IC50 for human recombinant HDAC6.
For test [2], the system named is B16. As to the kind of experiment: Inhibition of Class 1 histone deacetylase in mouse B16 cells assessed as increase in histone H3 acetylation at 10 uM incubated for 24 hrs by Western blotting. It is filed as cell-based. On the technique in general: A western blot detects proteins with antibodies after separation by electrophoresis.
In test [3] the target is T1, Protein deacetylase HDAC6 (Mus musculus) (UniProt Q9Z2V5).
T1 sequence (whole entry): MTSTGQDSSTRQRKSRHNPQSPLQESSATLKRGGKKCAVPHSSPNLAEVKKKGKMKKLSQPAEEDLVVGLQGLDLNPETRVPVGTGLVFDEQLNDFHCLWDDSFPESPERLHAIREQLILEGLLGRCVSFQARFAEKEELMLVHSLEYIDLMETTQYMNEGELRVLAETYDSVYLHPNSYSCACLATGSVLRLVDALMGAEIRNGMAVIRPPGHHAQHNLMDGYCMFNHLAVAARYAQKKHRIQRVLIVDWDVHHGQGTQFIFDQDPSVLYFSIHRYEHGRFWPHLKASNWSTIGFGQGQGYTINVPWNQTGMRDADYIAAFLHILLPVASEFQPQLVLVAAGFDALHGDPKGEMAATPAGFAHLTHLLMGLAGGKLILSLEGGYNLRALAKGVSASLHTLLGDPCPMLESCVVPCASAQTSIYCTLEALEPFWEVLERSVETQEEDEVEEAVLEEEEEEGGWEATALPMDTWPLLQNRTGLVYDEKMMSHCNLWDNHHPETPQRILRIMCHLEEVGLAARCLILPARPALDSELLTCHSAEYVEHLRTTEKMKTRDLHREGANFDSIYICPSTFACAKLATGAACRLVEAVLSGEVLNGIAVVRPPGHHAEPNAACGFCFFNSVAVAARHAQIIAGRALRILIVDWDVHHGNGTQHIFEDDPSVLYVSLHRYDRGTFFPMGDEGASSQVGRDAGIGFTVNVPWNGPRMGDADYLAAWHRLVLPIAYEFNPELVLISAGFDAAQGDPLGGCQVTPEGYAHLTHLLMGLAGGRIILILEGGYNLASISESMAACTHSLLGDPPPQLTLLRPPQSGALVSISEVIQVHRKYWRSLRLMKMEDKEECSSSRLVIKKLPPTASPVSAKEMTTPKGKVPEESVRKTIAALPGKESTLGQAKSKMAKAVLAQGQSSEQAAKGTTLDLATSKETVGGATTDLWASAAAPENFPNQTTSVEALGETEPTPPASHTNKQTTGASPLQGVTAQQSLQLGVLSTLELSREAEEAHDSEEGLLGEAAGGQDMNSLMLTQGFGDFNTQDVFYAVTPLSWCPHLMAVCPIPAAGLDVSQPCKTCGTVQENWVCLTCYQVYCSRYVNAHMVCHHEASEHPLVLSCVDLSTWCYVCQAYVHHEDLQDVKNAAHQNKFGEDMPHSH
The test can be described thus: Inhibition of HDAC6 in mouse B16 cells assessed as increase in acetyl alpha-tubulin level incubated for 24 hrs by Western blotting. The test is classed as cell-based.

The test system of test [4] is B16. As to the kind of experiment: Inhibition of Class 1 histone deacetylase in mouse B16 cells assessed as increase in histone H3 acetylation at 1 to 100 nM incubated for 24 hrs by Western blotting. It is filed as cell-based.
For test [5], the system named is B16. As to the kind of experiment: Inhibition of Class 1 histone deacetylase in mouse B16 cells assessed as increase in histone H3 acetylation at 1 uM incubated for 24 hrs by Western blotting. It is filed as cell-based.

As to `CCCCN(C(=O)NCc1ccc(C(=O)NO)cc1)c1ccccc1`, in the test on B16 [1], the “growth inhibition (GI)” value is “Dose-dependent effect” and growth was halved (GI50) at 65.8 µM. In the test filed under Homo sapiens, the Ratio IC50 is 322.

As to `COCCCN(C(=O)NCc1ccc(C(=O)NO)cc1)c1ccccc1`, in the test with B16 [1], the “growth inhibition (GI)” value was “Dose-dependent effect” and the GI50 (commonly the concentration that inhibits growth by half) was over 100 µM. Also, in the test listed under Homo sapiens, the Ratio IC50 was found to be 226.

As for `O=C(NO)c1ccc(CN(CCc2ccccc2)C(=O)Nc2ccccc2)cc1`, in the test on B16 [1], the “growth inhibition (GI)” value was “Dose-dependent effect” and growth was halved (GI50) at 15.4 µM. Moreover, the Ratio IC50 in the test listed under Homo sapiens amounted to 222.

`COc1ccccc1NC(=O)N(CCCN(C)C)Cc1ccc(C(=O)NO)cc1`: in the test on B16 [1], the “growth inhibition (GI)” value is “Dose-dependent effect” and the GI50 came to 75.3 µM. Besides, the Ratio IC50 in the test listed under Homo sapiens was determined as 6.

In the case of `COc1ccccc1NC(=O)NCc1ccc(C(=O)NO)cc1`, the Ratio IC50 in the test filed under Homo sapiens was determined as 2.

Regarding `COc1ccccc1NC(=O)N(CCCO)Cc1ccc(C(=O)NO)cc1`, in the test on B16 [1], the “growth inhibition (GI)” value was “Dose-dependent effect” and the GI50 was over 100 µM. Besides, the Ratio IC50 in the test filed under Homo sapiens amounted to 803.

Regarding `COc1ccccc1NC(=O)N(CCc1c[nH]c2ccccc12)Cc1ccc(C(=O)NO)cc1`, in the test with B16 [1], the “growth inhibition (GI)” value is “Dose-dependent effect” and the GI50 was found to be 30.4 µM. Further, the Ratio IC50 in the test listed under Homo sapiens turned out to be 19.

As for `COCCN(Cc1ccc(C(=O)NO)cc1)C(=O)Nc1ccccc1`, in the test on B16 [1], the “growth inhibition (GI)” value is “Dose-dependent effect”. In addition, the Ratio IC50 in the test listed under Homo sapiens came to 243.

In the case of `COc1ccccc1NC(=O)N(CCc1ccc(O)cc1)Cc1ccc(C(=O)NO)cc1`, in the test with B16 [1], the “growth inhibition (GI)” value was “Dose-dependent effect” and the GI50 turned out to be 18.4 µM. In the test listed under Homo sapiens, the Ratio IC50 was determined as 292.

In the case of `CN1CCc2c(c3ccccc3n2Cc2ccc(C(=O)NO)cc2)C1` [TUBASTATIN A], in the test with B16 [1], the “growth inhibition (GI)” value was “Dose-dependent effect” and it took 40.5 µM to inhibit growth by half (GI50).

As for `Cc1[nH]c2ccccc2c1CCNCc1ccc(/C=C/C(=O)NO)cc1` [PANOBINOSTAT], in the test with B16 [1], the “growth inhibition (GI)” value is “Dose-dependent effect” and the GI50 was 0.15 µM.

Turning to `COCCCN(Cc1ccc(C(=O)NO)cc1)C(=O)Nc1ccccc1`, in the test on B16 [1], the “growth inhibition (GI)” value was “Dose-dependent effect” and it took 22.2 µM to inhibit growth by half (GI50). Besides, the Ratio IC50 in the test listed under Homo sapiens is 443.

In the case of `CCN(C(=O)NCc1ccc(C(=O)NO)cc1)c1ccccc1`, in the test on B16 [1], the “growth inhibition (GI)” value is “Dose-dependent effect” and the GI50 was over 100 µM. The Ratio IC50 in the test listed under Homo sapiens came out at 330.

With `CCCCN(Cc1ccc(C(=O)NO)cc1)C(=O)Nc1ccccc1`, the inhibition result in the test with B16 [2] and in the test on B16 [5] was “Active” throughout. Also, in test [3], the inhibition entry is “Dose-dependent effect”. The “growth inhibition (GI)” value in the test on B16 [1] is “Dose-dependent effect”. In the test with B16 [4], the inhibition entry was “inactive”.
